Measurements reported in patent US5837728A, “9-cis retinoic acid esters and amides and uses thereof” (priority 1995, dated 1998).

Experiments:
[1] = system: pseudocomedone (utriculus) of the rhino mouse; assay: Topical rhino mouse pseudocomedone (utriculus) reduction assay; type: in vivo; parameters: Utriculus reduction (Table 1) / Utriculus reduction (Table 3): key to the marks not given beside the values; settings: for Utriculus reduction (Table 1): 0.1% concentration, once daily 5 days/week for two weeks; for Utriculus reduction (Table 3): concentration 0.1 (unit not given); for Utriculus Reduction (Table 7): two weeks
Procedure: A topical assay to test for pseudocomedone (utriculus) reduction in the rhino mouse is conducted.
Each test compound and a vehicle control is applied topically to the dorsal trunk of the rhino mouse. The utriculus diameters are measured with a ocular micrometer. […] Kligman, et al., The Effect on Rhino Mouse Skin of Agents which Influence Keratinization and Exfoliation, J. Invest. Derm. […] Van Scott, Experimental Animal Integumental Models for Screening Potential Dermatologic Drugs, In Pharmacology of the Skin, eds. […] Mann, Hair Loss and Cyst Formation in Hairless and Rhino Mutant Mice, Anat. Rec. […] Mezick, et al., Topical and Systemic Effects of Retinoids on Horn-Filled Utriculus Size in the Rhino Mouse. A Model to Quantify Antikeratinizing Effects of Retinoids, J. Invest. Derm. […] Mezick, et al., Anti-Acne Activity of Retinoids in the Rhino Mouse, In Models in Dermatology, eds.
(§1) The dorsal trunk of the rhino mouse is the test site. Each test compound is dissolved in alcohol:propylene glycol (70:30, v:v) or other suitable vehicle and topically applied (0.1 ml) to the dorsal trunk once daily, five consecutive days/week for two weeks. Also, administration may be oral (p.o.) in a suitable vehicle. Following treatment, the animals are sacrificed by cervical dislocation. The treated dorsal trunk skin is removed from the animal and placed into 0.5% acetic acid for up to 18 hours at approximately 4° C. After this, the epidermis with the acne cysts is separated from the underlying dermis. The sheets of epidermis are processed by routine methods to permanent whole mounts for microscopic examination. Also, full-thickness samples may be taken, stained (H&E), and examined by light microscopy.
The utriculus diameters are measured with an ocular micrometer to compare effects of test compounds to vehicle control and/or reference compound on cyst reduction. Light microscopy is used to determine effects on cell differentiation.
Another topical assay is conducted following the procedure described above.
Each test compound and a vehicle control was applied topically to the dorsal trunk of the rhino mouse. The utriculus diameters are measured with a ocular micrometer. […] Kligman, et al., J. Invest. […] Van Scott, Pharmacology of the Skin, eds. […] Mann, Anat. […] Mezick, et al, J. Invest. […] Mezick et al., Models in Dermatology, eds.
as §1, with “(70:30,v:v)” for “(70:30, v:v)”, “weeks.” for “weeks. Also, administration may be oral (p.o.) in a suitable vehicle.”, “"acne cysts"” for “acne cysts”, “are” for “may be”, “(H&E)” for “(H&E),”, “microscope.” for “microscopy.”

[2] = system: sebaceous gland; assay: Oral hamster sebaceous gland reduction assay; type: in vivo, male Syrian golden hamsters; parameters: key to the marks not given beside the values; settings: 32 mg/kg
Procedure: An oral assay for hamster sebaceous gland reduction is conducted.
Hamsters are dosed orally with the test compound and vehicle alone. The reduction in sebaceous gland size is estimated microscopically in relation to the control. The assay is unique and proprietary to Ortho Pharmaceutical Corp. and is based upon the work of Plewig et al. (1977) and Gomex et al. (1980). Plewig, et al., Hamster Ear Model for Sebaceous Glands, J. Invest. Derm. 68: 171-176 (1977). Gomez, et al., Effect of 13-cis-Retinoic Acid on the Hamster Flank Organ, J. Invest. Derm. 74: 392-397 (1980).
For oral (p.o.) studies, male Syrian golden hamsters are […] at 5 ml/kg, once daily, five consecutive days/week for two or three weeks. Modified but similar dosing schedules could be used. Control hamsters are dosed with vehicle alone at 5 ml/kg. Following final treatment (up to 72 hours), the hamsters are sacrificed in a CO2 atmosphere. Samples of each test site are placed into 10% buffered formalin and histologically prepared. Serial sections of each sample are stained (H&E) and examined microscopically.
The reduction in sebaceous gland size is estimated microscopically in relation to the control treated sites. To quantify sebaceous gland size, cross-sectional areas are measured with an image analyzer system.

[3] = system: skin (inner forearm, cheek); assay: Topical assay for comparative dermal irritation in human subjects; type: in vivo, human (patients); settings: for Irritant reactions, inner forearm: first test, 0.025% solution; for Irritant reactions, inner forearm / Irritant reaction, inner forearm: twice daily for ten days; for Irritant reaction, inner forearm: second test, one subject of four reacted; for Irritant reaction, inner forearm / Irritation of the cheeks: 0.075% solution; for Irritation of the cheeks: third test, twice daily, six days
Procedure: 2-(9-cis-retinoyloxy)-4-methoxyacetophenone is evaluated in a study of its potential to produce dermal irritation. Comparisons are made of tretinoin, isotretinoin, 2-(9-cis-retinoyloxy)-4-methoxyacetophenone, and the vehicle solution.
In the first test, four solutions are used. The control consists of vehicle solution, namely a solution of 60% by volume ethanol and 40% by volume polyethylene glycol. The other three solutions are 0.025% solutions of tretinoin, isotretinoin, or 2-(9-cis-retinoyloxy)-4-methoxyacetophenone in 60% by volume ethanol and 40% by volume polyethylene glycol. Four patients paint two saturated cotton swabs of each of the four solutions on four different areas of the inner forearm, twice daily for ten days.
In the second test, four other solutions are used. The control consists of vehicle solution, namely a solution of 90% by volume ethanol and 10% by volume polyethylene glycol. The other three solutions are 0.075% solutions of tretinoin, isotretinoin, or 2-(9-cis-retinoyloxy)-4-methoxyacetophenonein 90% by volume ethanol and 10% by volume polyethylene glycol. Four patients paint two saturated cotton swabs of each of the four solutions on four different areas of the inner forearm, twice daily for ten days. Only one subject experiences an irritant reaction. […] By day nine, both areas are still reacting, the tretinoin area more intensely than the isotretinoin area. There is no reaction in either the 2-(9-cis-retinoyloxy)-4-methoxyacetophenone or the control areas.
In the third test, three solutions are used. The three solutions are 0.075% solutions of tretinoin, isotretinoin, or 2-(9-cis-retinoyloxy)-4-methoxyacetophenone in 90% by volume ethanol and 10% by volume polyethylene glycol. Four patients paint two saturated cotton swabs of the 2-(9-cis-retinoyloxy)-4-methoxyacetophenone solution twice daily on one cheek of their faces. To the other cheek they apply two saturated cotton swabs of either tretinoin or isotretinoin.
The tests are carried out in double-blind fashion, that is, neither the subjects nor the investigator know the contents of the solutions during the study.
Clinical assessments are made daily of the subjects cheeks. All subjects develop irritant reactions by the third or fourth day of the study.

| SMILES | Utriculus reduction (Table 1) [1] | Utriculus reduction (Table 3) [1] | Sebaceous gland reduction [2] | Irritant reactions, inner forearm [3] | Irritant reaction, inner forearm [3] | Irritation of the cheeks [3] | Utriculus Reduction (Table 7) ([1]; dose 0.0005%) | Utriculus Reduction (Table 7) ([1]; dose 0.005%) | Utriculus Reduction (Table 7) ([1]; dose 0.05%) |
| --- | --- | --- | --- | --- | --- | --- | --- | --- | --- |
| COc1ccc(C(=O)COC(=O)/C=C(C)/C=C/C=C(C)\C=C\C2=C(C)CCCC2(C)C)cc1 [Compound 2, 2-(9-cis-retinoyloxy)-4'-methoxyacetophenone] | +++ | +++ | +++ | No irritant reactions occur | no reaction | slightly irritated or not irritated at all |  |  |  |
| CC1=C(/C=C/C(C)=C/C=C/C(C)=C/C(=O)O)C(C)(C)CCC1 [all-trans-retinoic acid, reference compound] | ++ | ++ | +++ | No irritant reactions occur | On day two, the tretinoin area begins reacting with redness and peeling | reactions which are so intense with redness and peeling that all subjects discontinue application on or before the sixth day | 34.1 | 49.9 | 72.8 |
